The target in data set [1] is T1, Btk enzyme (His-tagged, full-length) (Homo sapiens, UniProt Q06187).
T1 construct: 5-10 nM Btk enzyme (His-tagged, full-length); His
The data set is described as follows: Bruton's Tyrosine Kinase (Btk) Inhibition Assay (33P filtration capture). In kind it is biochemical. The conditions noted are these: 100 μM ATP, 30 μM biotinylated SH2 peptide substrate, 30 min at 30° C. The source says:
The assay is a capture of radioactive ^33P phosphorylated product through filtration. The interactions of Btk, biotinylated SH2 peptide substrate (Src homology), and ATP lead to phosphorylation of the peptide substrate. Biotinylated product is bound streptavidin sepharose beads. All bound, radiolabeled products are detected by scintillation counter.
Plates assayed are 96-well polypropylene (Greiner) and 96-well 1.2 μm hydrophilic PVDF filter plates (Millipore). Concentrations reported here are final assay concentrations: 10-100 μM compounds in DMSO (Burdick and Jackson), 5-10 nM Btk enzyme (His-tagged, full-length), 30 μM peptide substrate (Biotin-Aca-AAAEEIYGEI-NH2), 100 μM ATP (Sigma), 8 mM imidazole (Sigma, pH 7.2), 8 mM glycerol-2-phosphate (Sigma), 200 μM EGTA (Roche Diagnostics), 1 mM MnCl2 (Sigma), 20 mM MgCl2 (Sigma), 0.1 mg/ml BSA (Sigma), 2 mM DTT (Sigma), 1 μCi ^33P ATP (Amersham), 20% streptavidin sepharose beads (Amersham), 50 mM EDTA (Gibco), 2 M NaCl (Gibco), 2 M NaCl w/1% phosphoric acid (Gibco), microscint-20 (Perkin Elmer).
IC50 determinations are calculated from 10 data points per compound utilizing data produced from a standard 96-well plate assay template. One control compound and seven unknown inhibitors were tested on each plate and each plate was run twice. Typically, compounds were diluted in half-log starting at 100 μM and ending at 3 nM. The control compound was staurosporine. Background was counted in the absence of peptide substrate. Total activity was determined in the presence of peptide substrate. The following protocol was used to determine Btk inhibition.
1) Sample preparation: The test compounds were diluted at half-log increments in assay buffer (imidazole, glycerol-2-phosphate, EGTA, MnCl2, MgCl2, BSA).
2) Bead preparation • a.) rinse beads by centrifuging at 500 g • b.) reconstitute the beads with PBS and EDTA to produce a 20% bead slurry
3) Pre-incubate reaction mix without substrate (assay buffer, DTT, ATP, P ATP) and mix with substrate (assay buffer, DTT, ATP, ^33P ATP, peptide substrate) 30° C. for 15 min.
4) To start assay, pre-incubate 10 μL Btk in enzyme buffer (imidazole, glycerol-2-phosphate, BSA) and 10 μL of test compounds for 10 min at RT.
5) Add 30 μL reaction mixture without or with substrate to Btk and compounds.
6) Incubate 50 μL total assay mix for 30 min at 30° C.
7) Transfer 40 μL of assay to 150 μL bead slurry in filter plate to stop reaction.
8) Wash filter plate after 30 min, with following steps • a. 3×250 μL NaCl • b. 3×250 μL NaCl containing 1% phosphoric acid • c. 1×250 μL H2O
9) Dry plate for 1 h at 65° C. or overnight at RT
10) Add 50 μL microscint-20 and count ^33P cpm on scintillation counter.
Calculate percent activity from raw data in cpm percent activity=(sample−bkg)/(total activity−bkg)×100
Calculate IC50 from percent activity, using one-site dose response sigmoidal model y=A+((B−A)/(1+((x/C)^D)))) • x=cmpd conc, y=% activity, A=min, B=max, C=IC50, D=1 (hill slope)

T1 sequence (Q06187 whole entry): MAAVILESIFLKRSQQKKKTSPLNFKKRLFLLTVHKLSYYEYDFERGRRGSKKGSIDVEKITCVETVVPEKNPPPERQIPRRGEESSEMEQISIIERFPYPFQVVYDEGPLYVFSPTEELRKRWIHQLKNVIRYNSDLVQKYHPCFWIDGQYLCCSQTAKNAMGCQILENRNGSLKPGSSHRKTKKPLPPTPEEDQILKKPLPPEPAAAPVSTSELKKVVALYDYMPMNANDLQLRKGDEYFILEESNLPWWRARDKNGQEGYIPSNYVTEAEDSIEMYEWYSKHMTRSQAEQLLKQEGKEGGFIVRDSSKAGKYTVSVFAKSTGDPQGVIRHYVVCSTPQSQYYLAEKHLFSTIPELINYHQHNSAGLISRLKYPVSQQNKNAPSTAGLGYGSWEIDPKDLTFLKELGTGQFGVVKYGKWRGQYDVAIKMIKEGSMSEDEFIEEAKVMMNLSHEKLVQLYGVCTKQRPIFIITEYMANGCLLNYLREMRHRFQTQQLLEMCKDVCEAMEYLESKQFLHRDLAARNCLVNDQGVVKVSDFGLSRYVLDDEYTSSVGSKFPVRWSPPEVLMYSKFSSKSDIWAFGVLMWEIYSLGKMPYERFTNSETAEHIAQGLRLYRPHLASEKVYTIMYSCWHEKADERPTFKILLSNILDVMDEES

`Cc1c(NC(=O)NC2CCC(S(C)(=O)=O)CC2)cccc1-c1cc(Nc2ccc(C(=O)N3CCOCC3)cn2)c2nccn2c1` (centres unmarked) [Example I-218, 1-(4-Methanesulfonyl-cyclohexyl)-3-(2-methyl-3-{8-[5-(morpholine-4-carbonyl)-pyridin-2-ylamino]-imidazo[1,2-a]pyridin-6-yl}-phenyl)-urea] showed an IC50 in data set [1] of 10 nM. Compound `CNC(=O)Nc1cc(-c2cccc(NC(=O)c3ccc(C(C)(C)C)cc3)c2C)nn2ccnc12` [Example I-8, 4-tert-Butyl-N-{2-methyl-3-[8-(3-methyl-ureido)-imidazo[1,2-b]pyridazin-6-yl]-phenyl}-benzamide] gave a melting point of 163 to 165 °C. Further, in data set [1], half-maximal inhibition (IC50) was put at 10 nM. For `CNC(=O)Nc1cc(-c2cccc(NC(=O)c3ccc(C(C)(C)C)cc3)c2C)cn2ccnc12` [Example I-56, 4-tert-Butyl-N-{2-methyl-3-[8-(3-methyl-ureido)-imidazo[1,2-a]pyridin-6-yl]-phenyl}-benzamide], in that order: 148 to 149 °C and 24 nM. Turning to `CCNC(=O)Nc1cc(-c2cccc(NC(=O)c3ccc(C(C)(C)C)cc3)c2C)cn2ccnc12` [Example I-53, 4-tert-Butyl-N-{3-[8-(3-ethyl-ureido)-imidazo[1,2-a]pyridin-6-yl]-2-methyl-phenyl}-benzamide], inhibition in data set [1] was half-maximal at 13 nM (IC50). This lies in the double-digit nanomolar range. In turn, `Cc1c(NC(=O)c2ccc(C(C)(C)C)cc2)cccc1-c1cc(NC(=O)NCCO)c2nccn2n1` [Example I-11, 4-tert-Butyl-N-(3-{8-[3-(2-hydroxy-ethyl)-ureido]-imidazo[1,2-b]pyridazin-6-yl}-2-methyl-phenyl)-benzamide] came in with a melting point of 183 to 184 °C. The same compound showed a 50% inhibitory concentration (IC50) in data set [1] of 19 nM. For `CCNC(=O)Nc1cc(-c2cccc(NC(=O)c3ccc(C(C)(C)C)cc3)c2C)nn2ccnc12` [Example I-7, 4-tert-Butyl-N-{3-[8-(3-ethyl-ureido)-imidazo[1,2-b]pyridazin-6-yl]-2-methyl-phenyl}-benzamide], in that order: 181 to 183 °C and 22 nM. On to `Cc1c(NC(=O)c2ccc(N(C)C)cc2)cccc1-c1cc(NC(=O)NCCCN2CCN(C)CC2)c2nccn2c1` [Example I-72, 4-Dimethylamino-N-[2-methyl-3-(8-{3-[3-(4-methyl-piperazin-1-yl)-propyl]-ureido}-imidazo[1,2-a]pyridin-6-yl)-phenyl]-benzamide], for which the melting point lay in the range of 144 to 145 °C. `CNC(=O)Nc1cc(-c2ccccc2)cn2ccnc12` [Example I-61, 1-Methyl-3-(6-phenyl-imidazo[1,2-a]pyridin-8-yl)-urea] had a melting point of 69 to 70 °C. Still for that read-out and setting: for `Cc1c(NC(=O)N2CC(OC(C)(C)C)C2)cccc1-c1cc(NC(=O)NCCCN(C)C)c2nccn2c1` [Example I-70, 3-tert-Butoxy-azetidine-1-carboxylic acid {3-{8-[3-(3-dimethylamino-propyl)-ureido]-imidazo[1,2-a]pyridin-6-yl}-2-methyl-phenyl)-amide] the value was 129 to 130 °C; for `Cc1c(NC(=O)c2ccc(C(C)(C)C)cc2)cccc1-c1cc(NC(=O)NC(C)(C)C)c2nccn2n1` [Example I-10, 4-tert-Butyl-N-{3-[8-(3-tert-butyl-ureido)-imidazo[1,2-b]pyridazin-6-yl]-2-methyl-phenyl}-benzamide], 191 to 193 °C. For the compound `Cc1c(NC(=O)c2ccc(C(C)(C)C)cc2)cccc1-c1cc(Nc2nccs2)c2nccn2n1` [Example I-12, 4-tert-Butyl-N-{2-methyl-3-[8-(thiazol-2-ylamino)-imidazo[1,2-b]pyridazin-6-yl]-phenyl}-benzamide], the melting point lay in the range of 178 to 179 °C. For the compound `CNC(=O)Nc1cc(-c2ccccc2)nn2ccnc12` [Example I-13, 1-Methyl-3-(6-phenyl-imidazo[1,2-b]pyridazin-8-yl)-urea], the melting point lay in the range of 192 to 193 °C.

Consider `Cn1ccc(Nc2cc(-c3cccc(NC(=O)c4ccc(C5CC5)cc4)c3CO)nn3ccnc23)n1` [Example I-45, 4-Cyclopropyl-N-{2-hydroxymethyl-3-[8-(1-methyl-1H-pyrazol-3-ylamino)-imidazo[1,2-b]pyridazin-6-yl]-phenyl}-benzamide], for which, in data set [1], the IC50 came to 15 nM. That is a double-digit nanomolar value.

As to `CNC(=O)Nc1cc(-c2cccc(NC(=O)c3ccc(OC)cc3)c2C)cn2ccnc12` [Example I-78, 4-Methoxy-N-{2-methyl-3-[8-(3-methyl-ureido)-imidazo[1,2-a]pyridin-6-yl]-phenyl}-benzamide], the melting point was 147.6 to 152.9 °C.

As for `CNC(=O)Nc1cc(-c2cccc(CC(=O)NCC#CC(C)(C)C)c2)cn2ccnc12` [Example I-99, N-(4,4-Dimethyl-pent-2-ynyl)-2-{3-[8-(3-methyl-ureido)-imidazo[1,2-a]pyridin-6-yl]-phenyl}-acetamide], the melting point is 129 to 130 °C. In data set [1], `O=C(Nc1cccc(-c2cc(Nc3ccc(C(=O)N4CCOCC4)cn3)c3nccn3n2)c1CO)c1ccc(C2CC2)cc1` [Example I-43, 4-Cyclopropyl-N-(2-hydroxymethyl-3-{8-[5-(morpholine-4-carbonyl)-pyridin-2-ylamino]-imidazo[1,2-b]pyridazin-6-yl}-phenyl)-benzamide] yielded an IC50 of 13 nM. In the case of `Cc1c(NC(=O)c2ccc(C(C)(C)C)cc2)cccc1-c1cc(NC(=O)NCCCN2CCN(C)CC2)c2nccn2c1` [Example I-94, 4-tert-Butyl-N-[2-methyl-3-(8-{3-[3-(4-methyl-piperazin-1-yl)-propyl]-ureido}-imidazo[1,2-a]pyridin-6-yl)-phenyl]-benzamide], the melting point fell in the range of 167 to 168 °C. Consider `C1=C(c2cc(Nc3ccccn3)c3nccn3n2)CCCC1` [Example I-3, (6-Cyclohex-1-enyl-imidazo[1,2-b]pyridazin-8-yl)-pyridin-2-yl-amine], for which the melting point lay in the range of 160.7 to 161.5 °C. On the same count and under the same terms, for `Cc1c(NC(=O)c2ccc(C(O)(C(F)(F)F)C(F)(F)F)cc2)cccc1-c1cc(NC(=O)NCCCN(C)C)c2nccn2c1` [Example I-98, N-(3-{8-[3-(3-Dimethylamino-propyl)-ureido]-imidazo[1,2-a]pyridin-6-yl}-2-methyl-phenyl)-4-(2,2,2-trifluoro-1-hydroxy-1-trifluoromethyl-ethyl)-benzamide] the value was 198 to 200 °C; for `CNC(=O)Nc1cc(-c2cccc(NC(=O)c3ccc([Si](C)(C)C)cc3)c2C)cn2ccnc12`, 143.5 to 154.4 °C. Same read-out and setting: in the case of `Cc1c(NC(=O)c2ccc(N(C)C)cc2)cccc1-c1cc(NC(=O)NCCCN2CCOCC2)c2nccn2c1` [Example I-68, 4-Dimethylamino-N-(2-methyl-3-{8-[3-(3-morpholin-4-yl-propyl)-ureido]-imidazo[1,2-a]pyridin-6-yl}-phenyl)-benzamide] it was 190.2 to 209.7 °C; in that of `CNC(=O)Nc1cc(-c2cccc(NC(=O)c3ccc(OC(F)(F)F)cc3)c2C)cn2ccnc12` [Example I-79, N-{2-Methyl-3-[8-(3-methyl-ureido)-imidazo[1,2-a]pyridin-6-yl]-phenyl}-4-trifluoromethoxy-benzamide], 148.4 to 153.2 °C. The compound `Cc1c(NC(=O)c2ccc(C(C)(C)C)cc2)cccc1-c1cc(NC(=O)NCCCN(C)C)c2nccn2c1` [Example I-77, 4-tert-Butyl-N-(3-{8-[3-(3-dimethylamino-propyl)-ureido]-imidazo[1,2-a]pyridin-6-yl}-2-methyl-phenyl)-benzamide] showed a melting point of 182.7 to 199.7 °C. The same compound gave a half-inhibitory concentration (IC50) in data set [1] of 18 nM. Consider `Cc1c(NC(=O)c2ccc(C(C)(C)C)cc2)cccc1-c1cc(NC(N)=O)c2nccn2c1` [Example I-67, 4-tert-Butyl-N-[2-methyl-3-(8-ureido-imidazo[1,2-a]pyridin-6-yl)-phenyl]-benzamide], for which the melting point is 185.4 to 215 °C.

Broadly, the IC50 is the concentration needed to halve the response being measured. High values mean weaker potency in that assay, low ones greater potency in that assay. By melting point is commonly meant the temperature, or range, at which the solid turns liquid.
